Measured values taken from patent US12590118B2, “Salt and crystal form of steroid derivative regulator” (Shanghai Hansoh Biomedical Co., Ltd., priority 2019, dated 2026).

Target: GABA-A receptor
Experiment: 35S-TBPS binding assay (GABAA receptor binding ability assay)
Design: species or system Sprague-Dawley rat
Settings: rat cerebral cortex cell membrane, 5 μM GABA, 2 nM 35S-TBPS; read-out: IC50 on inhibiting the TBPS binding activity, 35S-TBPS bindng assay
Description: 1. The cerebral cortex of male Sprague-Dawley rat was isolated.
2. A pre-chilled 0.32 M sucrose solution (one tablet of protease inhibitor was added per 100 mL) was added to the cerebral cortex (the volume of sucrose solution was 10 times the volume of the cerebral cortex). The mixture was crushed with a 50 mL glass tissue homogenizer in batches and mixed well.
3. The mixture was centrifuged at 1,500 g, 4° C. for 10 minutes, and the supernatant was collected.
4. The mixture was centrifuged at 20,000 g, 4° C. for 30 minutes, and the supernatant was discarded.
5. The precipitate was resuspended with the pre-chilled phosphate buffer saline (PBS) (one tablet of protease inhibitor was added per 100 mL). An average of 4 mL of PBS was added per rat, and the mixture was mixed well with a glass tissue homogenizer.
6. The mixture was centrifuged at 10,000 g, 4° C. for 10 minutes, and the supernatant was discarded.
7. Steps 5 and 6 were repeated three times.
8. Finally, the precipitate was resuspended with 4 volumes of PBS. The resulting solution was dispensed, frozen in liquid nitrogen, and stored at −80° C.
9. The protein concentration was measured by the bicinchoninic acid (BCA) method.
1. 230 μL of PBS was added to each well of a well plate with 1.1 mL volume.
2. 60 μL of the cerebral cortex cell membrane (5 μg/μL) solution was added to each well, and the mixture was mixed well.
3. The test compound (3 μL per well) was added, and the plate was incubated at 25° C. for 5 minutes. The DMSO concentration was 1%. The initial compound concentration was […], and a
3-fold dilution in gradient was carried out to obtain a total of 8 gradients and 2 replicates. 1% DMSO was used as a negative control, and 10 μM P026-2 was used as a positive control.
4. GABA was added at a final concentration of 5 μM, and incubated at 25° C. for 5 minutes. 1 mM GABA solution was formulated, and 1.5 μL of the solution was added to each well.
5. 35S-TBPS was added at a final concentration of 2 nM. The concentration of isotope mother solution was 9.7 μM. After dilution with PBS for 100 times, 6 μL of the diluted isotope solution was added to each well.
6. The plate was incubated at 4° C. for 20 hours.
7. The FilterMate GF/C plate was pre-treated with 0.5% PEI, and incubated at 4° C. for 1 hour.
8. The FilterMate GF/C plate was washed with Universal Harvester twice, 50 mL PBS each time.
9. The reaction solution was transferred to the GF/C plate, and each well was washed 4 times with 900 μL of PBS.
10. The washed GF/C plate was placed at 55° C. and dried for 10 minutes.
11. 40 μL of scintillation solution was added to each well, and the CPM value was read with TopCount.
In the experiment, the CPM (counts per minute) value was read with TopCount. According to the readings of the High control (DMSO) and the Low control (10 μM of the positive compound) experimental groups, the % inhibition was calculated based on the following formula: % Inhibition=100×(CPMHigh control−CPMsample)/(CPMHigh control−CPMLow control)
The IC50 of the compound was calculated according to the following 4-parameter nonlinear logic formula: Y=Bottom+(Top−Bottom)/(1+10^((Log IC50−X)*HillSlope)),
wherein: • X represents the log of compound concentration, • Y represents the % Inhibition.
The effect of the compound of the present invention on the TBPS binding activity was determined by the above test, and the measured IC50 values are shown in Table 5.

| SMILES | IC50 [nM] |
| --- | --- |
| C[C@@]1(O)CC[C@H]2[C@H](CC[C@@H]3[C@@H]2CC[C@@]2(C)[C@H]3[C@@H]3C[C@@H]3[C@@H]2C(=O)Cn2ccc(C(F)(F)F)n2)C1 [Example 4, 1-((2R,4aS,4bR,6aS,7S,7aS,8aR,8bR,8cR,10aR)-2-Hydroxy-2,6a-dimethyloctadecahydrocyclopropa[4,5]cyclopenta[1,2-a]phenanthren-7-yl)-2-(3-(trifluoromethyl)-1H-pyrazol-1-yl)ethan-1-one] | 3.1 |
| C[C@@]1(O)CC[C@H]2[C@H](CC[C@@H]3[C@@H]2CC[C@@]2(C)[C@H]3[C@@H]3C[C@@H]3[C@@H]2C(=O)Cn2nccn2)C1 [Example 5, 1-((2R,4aS,4bR,6aS,7S,7aS,8aR,8bR,8cR,10aR)-2-Hydroxy-2,6a-dimethyloctadecahydrocyclopropa[4,5]cyclopenta[1,2-a]phenanthren-7-yl)-2-(2H-1,2,3-triazol-2-yl)ethan-1-one] | 14.7 |
| C[C@@]1(O)CC[C@H]2[C@H](CC[C@@H]3[C@@H]2CC[C@@]2(C)[C@H]3[C@@H]3C[C@@H]3[C@@H]2C(=O)Cn2ncnn2)C1 [Example 7, 1-((2R,4aS,4bR,6aS,7S,7aS,8aR,8bR,8cR,10aR)-2-Hydroxy-2,6a-dimethyloctadecahydrocyclopropa[4,5]cyclopenta[1,2-a]phenanthren-7-yl)-2-(2H-tetrazol-2-yl)ethan-1-one] | 21.3 |
| C[C@@]1(O)CC[C@H]2[C@H](CC[C@@H]3[C@@H]2CC[C@@]2(C)[C@H]3[C@@H]3C[C@@H]3[C@@H]2C(=O)Cn2cc(Cl)cn2)C1 [Example 14, 2-(4-Chloro-1H-pyrazol-1-yl)-1-((2R,4aS,4bR,6aS,7S,7aS,8aR,8bR,8cR,10aR)-2-hydroxy-2,6a-dimethyloctadecahydrocyclopropa[4,5]cyclopenta[1,2-a]phenanthren-7-yl)ethan-1-one] | 6.4 |
| C[C@@]1(O)CC[C@H]2[C@H](CC[C@@H]3[C@@H]2CC[C@@]2(C)[C@H]3[C@@H]3C[C@@H]3[C@@H]2C(=O)Cn2cc(C#N)c(C3CC3)n2)C1 [Example 24, 3-Cyclopropyl-1-(2-((2R,4aS,4bR,6aS,7S,7aS,8aR,8bR,8cR,10aR)-2-hydroxy-2,6a-dimethyloctadecahydrocyclopropa[4,5]cyclopenta[1,2-a]phenanthren-7-yl)-2-oxoethyl)-1H-pyrazole-4-carbonitrile] | 18.3 |
| C[C@@]1(O)CC[C@H]2[C@H](CC[C@@H]3[C@@H]2CC[C@@]2(C)[C@H]3[C@@H]3C[C@@H]3[C@@H]2C(=O)Cn2ncc(C#N)c2C2CC2)C1 [Example 25, 5-Cyclopropyl-1-(2-((2R,4aS,4bR,6aS,7S,7aS,8aR,8bR,8cR,10aR)-2-hydroxy-2,6a-dimethyloctadecahydrocyclopropa[4,5]cyclopenta[1,2-a]phenanthren-7-yl)-2-oxoethyl)-1H-pyrazole-4-carbonitrile] | 28.1 |
| Cc1nn(CC(=O)[C@H]2[C@H]3C[C@H]3[C@H]3[C@@H]4CC[C@@H]5C[C@](C)(O)CC[C@@H]5[C@H]4CC[C@@]32C)cc1C#N [Example 28, 1-(2-((2R,4aS,4bR,6aS,7S,7aS,8aR,8bR,8cR,10aR)-2-Hydroxy-2,6a-dimethyloctadecahydrocyclopropa[4,5]cyclopenta[1,2-a]phenanthren-7-yl)-2-oxoethyl)-3-methyl-1H-pyrazole-4-carbonitrile] | 15.4 |
| Cc1c(C#N)cnn1CC(=O)[C@H]1[C@H]2C[C@H]2[C@H]2[C@@H]3CC[C@@H]4C[C@](C)(O)CC[C@@H]4[C@H]3CC[C@@]21C [Example 29, 1-(2-((2R,4aS,4bR,6aS,7S,7aS,8aR,8bR,8cR,10aR)-2-Hydroxy-2,6a-dimethyloctadecahydrocyclopropa[4,5]cyclopenta[1,2-a]phenanthren-7-yl)-2-oxoethyl)-5-methyl-1H-pyrazole-4-carbonitrile] | 15.4 |
| C[C@@]1(O)CC[C@H]2[C@H](CC[C@@H]3[C@@H]2CC[C@@]2(C)[C@H]3[C@@H]3C[C@@H]3[C@@H]2C(=O)Cn2cc(F)cn2)C1 [Example 30, 2-(4-Fluoro-1H-pyrazol-1-yl)-1-((2R,4aS,4bR,6aS,7S,7aS,8aR,8bR,8cR,10aR)-2-hydroxy-2,6a-dimethyloctadecahydrocyclopropa[4,5]cyclopenta[1,2-a]phenanthren-7-yl)ethan-1-one] | 28.7 |
| CCOC(=O)c1cnn(CC(=O)[C@H]2[C@H]3C[C@H]3[C@H]3[C@@H]4CC[C@@H]5C[C@](C)(O)CC[C@@H]5[C@H]4CC[C@@]32C)c1 [Example 35, Ethyl 1-(2-((2R,4aS,4bR,6aS,7S,7aS,8aR,8bR,8cR,10aR)-2-hydroxy-2,6a-dimethyloctadecahydrocyclopropa[4,5]cyclopenta[1,2-a]phenanthren-7-yl)-2-oxoethyl)-1H-pyrazole-4-carboxylate] | 5 |
| C[C@@H]1C[C@H](C(=O)Cn2cc(C(F)(F)F)cn2)[C@@]2(C)CC[C@H]3[C@@H](CC[C@@H]4C[C@](C)(O)CC[C@@H]43)[C@H]12 [Example 39, 1-((3R,5R,8R,9R,10S,13S,14S,15R,17S)-3-Hydroxy-3,13,15-trimethylhexadecahydro-1H-cyclopenta[a]phenanthren-17-yl)-2-(4-(trifluoromethyl)-11H-pyrazol-1-yl)ethan-1-one] | 6.2 |
| C[C@@H]1C[C@H](C(=O)Cn2ccnn2)[C@@]2(C)CC[C@H]3[C@@H](CC[C@@H]4C[C@](C)(O)CC[C@@H]43)[C@H]12 [Example 42, 1-((3R,5R,8R,9R,10S,13S,14S,15R,17S)-3-Hydroxy-3,13,15-trimethylhexadecahydro-1H-cyclopenta[a]phenanthren-17-yl)-2-(1H-1,2,3-triazol-1-yl)ethan-1-one] | 24.6 |
| Cc1nnn(CC(=O)[C@H]2C[C@@H](C)[C@H]3[C@@H]4CC[C@@H]5C[C@](C)(O)CC[C@@H]5[C@H]4CC[C@@]32C)n1 [Example 43, 1-((3R,5R,8R,9R,10S,13S,14S,15R,17S)-3-Hydroxy-3,13,15-trimethylhexadecahydro-1H-cyclopenta[a]phenanthren-17-yl)-2-(5-methyl-2H-tetrazol-2-yl)ethan-1-one] | 5.4 |
| C[C@@H]1C[C@H](C(=O)Cn2ncnn2)[C@@]2(C)CC[C@H]3[C@@H](CC[C@@H]4C[C@](C)(O)CC[C@@H]43)[C@H]12 [Example 44, 1-((3R,5R,8R,9R,10S,13S,14S,15R,17S)-3-Hydroxy-3,13,15-trimethylhexadecahydro-1H-cyclopenta[a]phenanthren-17-yl)-2-(2H-tetrazol-2-yl)ethan-1-one] | 6.1 |
| C[C@@H]1C[C@H](C(=O)Cn2cc(C#N)c(C3CC3)n2)[C@@]2(C)CC[C@H]3[C@@H](CC[C@@H]4C[C@](C)(O)CC[C@@H]43)[C@H]12 [Example 47, 3-Cyclopropyl-1-(2-((3R,5R,8R,9R,10S,13S,14S,15R,17S)-3-hydroxy-3,13,15-trimethylhexadecahydro-1H-cyclopenta[a]phenanthren-17-yl)-2-oxoethyl)-1H-pyrazole-4-carbonitrile] | 7.6 |
| C[C@@H]1C[C@H](C(=O)Cn2cc(Cl)cn2)[C@@]2(C)CC[C@H]3[C@@H](CC[C@@H]4C[C@](C)(O)CC[C@@H]43)[C@H]12 [Example 68, 2-(4-Chloro-1H-pyrazol-1-yl)-1-((3R,5R,8R,9R,10S,13S,14S,15R,17S)-3-hydroxy-3,13,15-trimethylhexadecahydro-1H-cyclopenta[a]phenanthren-17-yl)ethan-1-one] | 9.6 |
